# Assay results reported in US11297835B2, “Aqueous compositions of perillic acid compounds” (B.R.A.I.N. BIOTECHNOLOGY RESEARCH AND INFORMATION NETWORK AG, priority 2016, dated 2022).
# Experiments:
# [1] = tested on: Candida albicans ATCC®10231; experiment: MIC, microdilution method adapted from DIN EN ISO 20776-1:2006; format: cell-based; conditions: no growth after 24 h and 72 h
# Protocol: (§1) The antimicrobial activity of sodium perillate was examined in vitro using the microdilution method adapted from DIN EN ISO 20776-1:2006. R-Perillic acid and S-perillic acid were used as reference compounds. All experiments were done in 96-well plates in a final volume of 200 μL. Stock solutions of the investigated compounds were prepared in 25 mM buffer. The procedure was conducted as following: 4 μL of the particular stock solution were mixed with 196 μL culture medium containing a defined inoculum of the respective target strain. Sterile controls (not inoculated) and growth controls (buffer in-stead of compound added) were performed. All compound concentrations were tested in triplicate. The following strains were examined: Escherichia coli ATCC®8739, Pseudomonas aeruginosa ATCC®9027, Stapyhlococcus aureus ATCC®6538, Candida albicans ATCC®10231 and Aspergillus brasiliensis ATCC®16404. The following culture media were used: Mueller-Hinton II Bouillon (Escherichia coli, Pseudomonas aeruginosa and Staphylococcus aureus), yeast peptone dextrose (Candida albicans) and potato dextrose (Aspergillus brasiliensis). All culture media were buffered with 25 mM MES-buffer. For compound testing the plates were incubated at 37° C. (Escherichia coli, Pseudomonas aeruginosa and Staphylococcus aureus), at 28° C. (Candida albicans) and at 25° C. (Aspergillus brasiliensis). Plates were evaluated after 24 h and 72 h, respectively. The minimal inhibitory concentration is defined as the concentration where no microbial growth was observed after 24 h and 72 h incubation at the specified temperature.
# (§2) Table 1 Determination of the minimal inhibition concentration (MIC, % w/v) of sodium perillate against five classical spoiling organisms under acidic (pH<6.5) and alkaline (pH>7.5) conditions using the microdilution method adapted according to DIN EN ISO 20776-1:2006. The experiments were performed in micro-well plates in a final volume of 200 μL. MIC-values are given according to the following letter code. A>1% w/v, B=0.5-1% w/v, C=0.1-0.5% w/v. D<0.1% w/v.
# [2] = tested on: Staphylococcus aureus ATCC®6538; experiment: as above; format: cell-based; conditions: no growth after 24 h and 72 h
# Protocol: as §1, §2
# [3] = tested on: Escherichia coli ATCC®8739; experiment: as above; format: cell-based; conditions: no growth after 24 h and 72 h
# Protocol: as §1, §2
# [4] = tested on: Pseudomonas aeruginosa ATCC®9027; experiment: as above; format: cell-based; conditions: no growth after 24 h and 72 h
# Protocol: as §1, §2
# [5] = tested on: Aspergillus brasiliensis ATCC®16404; experiment: as above; format: cell-based; conditions: pH <6.5; no growth after 24 h and 72 h
# Protocol: as §1, §2
# [6] = Stability investigation of sodium perillate on storage (TLC, GC, HPLC recovery); format: physicochemical; conditions: stored 12 months at 4° C., 22-25° C. and 50° C., gas and liquid chromatography
# Protocol: Sodium perillate was prepared by adding a defined volume of a 0.1 M sodium hydroxide (NaOH) solution to perillic acid to give an aqueous solution of pH 7.0. The water was removed by evaporation resulting in a colorless solid. In order to investigate the stability of sodium perillate, the compound was stored for 12 months at 4° C., 22-25° C. (resemble room temperature) and 50° C. At certain time intervals all samples were examined and evaluated qualitatively using thin layer chromatography and quantitatively using gas and liquid chromatography. The results were compared to the stability of R perillic acid. […] These experiments highlight the long-term stability of sodium perillate.
# Table 5 Recovery of sodium perillate measured by liquid chromatography (HPLC). Column: Phenomenex Luna 018. Method: 70% acetonitrile and 30% water, isocratic. Recovery values were calculated according to a calibration curve performed with sodium perillate in the range of 0.05-2 mM in acetonitrile. Detection was carried out by UV-light (DAD-detector) at 217 and 240 nm.
# [7] = Solubility in water-based systems; format: physicochemical; conditions: neutral pH; compared to the free perillic acid
# [8] = tested on: Candida albicans ATCC®10231; experiment: Conservation efficacy testing in cosmetic oil-water-emulsion; format: cell-based; conditions: O/W emulsion pH 5-6, room temperature
# Protocol: (§3) The conservation efficacy of sodium perillate in a final product was determined using two different formulations: • a) an oil-water-emulsion pH 5.5 (example for a cosmetic product), • b) a water-based glucose solution at pH 3.5 (example for a non-carbonated soft drink).
# (§4) Hereby, a defined inoculum of the test strains was added directly to the formulations. In order to examine product preservation by sodium perillate or perillic acid, the formulations were incubated at room temperature for 4 to 16 weeks, respectively. Samples were taken every 7 days and […] (cfu) were counted on agar plates.
# (§5) Among others the following strains were used to determine the efficacy of sodium peril-late in an oil-water emulsion: Escherichia coli ATCC®8739, Pseudomonas aeruginosa ATCC®9027, Stapyhlococcus aureus ATCC®6538, Candida albicans ATCC®10231, and Aspergillus brasiliensis ATCC®16404.
# (§6) Table 2 Conservation efficacy testing of a typical cosmetic oil-water-emulsion at pH 5-6 supplemented with sodium perillate using five classical microbial test strains. All formulations were inoculated with a defined cell concentration and incubated over a time of 28 days at room temperature under standardized conditions. After 7, 14, 21 and 28 days samples were taken and the colony forming units (cfu) were calculated.
# [9] = tested on: Staphylococcus aureus ATCC®6538; experiment: as above; format: cell-based; conditions: O/W emulsion pH 5-6, room temperature
# Protocol: as §3, §4, §5, §6
# [10] = tested on: Escherichia coli ATCC®8739; experiment: as above; format: cell-based; conditions: O/W emulsion pH 5-6, room temperature
# Protocol: as §3, §4, §5, §6
# [11] = tested on: Pseudomonas aeruginosa ATCC®9027; experiment: as above; format: cell-based; conditions: O/W emulsion pH 5-6, room temperature
# Protocol: as §3, §4, §5, §6
# [12] = tested on: Aspergillus brasiliensis ATCC®16404; experiment: as above; format: cell-based; conditions: O/W emulsion pH 5-6, room temperature
# Protocol: as §3, §4, §5, §6
# [13] = tested on: Saccharomyces sp.; experiment: Conservation efficacy testing in aqueous formulation (juice matrix); format: cell-based; conditions: aqueous formulation (juice matrix) pH 2.5-4, room temperature
# Protocol: as §3, §4
# (§7) Among others the following species were used to determine the efficacy of sodium perillate in a water-based glucose formulation: Saccharomyces sp., Schizosaccharomyces sp., Asaia sp., Lactobacillus sp., and Aspergillus sp.
# (§8) Table 3 Illustration of cell reduction using sodium perillate in a typical aqueous formulation (juice matrix) for beverages pH 2.5-4 supplemented with sodium perillate. Conservation efficacy testing was performed using five microbial test strains: Saccharomyces sp., Schizosaccharomyces sp., Asaia sp., Lactobacillus sp., and Aspergillus sp. All formulations were inoculated with a defined cell concentration and incubated at room temperature under standardized conditions. After 7, 14, 21 and 28 days samples were taken and the colony forming units (cfu) were calculated and shown here.
# [14] = tested on: Asaia sp.; experiment: as above; format: cell-based; conditions: aqueous formulation (juice matrix) pH 2.5-4, room temperature
# Protocol: as §3, §4, §7, §8
# [15] = tested on: Aspergillus sp.; experiment: as above; format: cell-based; conditions: aqueous formulation (juice matrix) pH 2.5-4, room temperature
# Protocol: as §3, §4, §7, §8
# [16] = tested on: Schizosaccharomyces sp.; experiment: as above; format: cell-based; conditions: aqueous formulation (juice matrix) pH 2.5-4, room temperature
# Protocol: as §3, §4, §7, §8
# [17] = tested on: Lactobacillus sp.; experiment: as above; format: cell-based; conditions: aqueous formulation (juice matrix) pH 2.5-4, room temperature
# Protocol: as §3, §4, §7, §8
# [18] = pKa; format: physicochemical; conditions: weak acid of which sodium perillate is the salt
smiles,measurement,setting,value
"C=C(C)[C@@H]1CC=C(C(=O)O)CC1 [S-Perillic Acid, S-perillic acid]",MIC,[1]; pH <6.5,D (D<0.1% w/v)
same,MIC,[1]; pH >7.5,C (C=0.1-0.5% w/v)
same,MIC,[2]; pH <6.5,D (D<0.1% w/v)
same,MIC,[2]; pH >7.5,B (B=0.5-1% w/v)
same,MIC,[3]; pH <6.5,C (C=0.1-0.5% w/v)
same,MIC,[3]; pH >7.5,B (B=0.5-1% w/v)
same,MIC,[4]; pH <6.5,B (B=0.5-1% w/v)
same,MIC,[4]; pH >7.5,A (A>1% w/v)
same,MIC,[5],D (D<0.1% w/v)
"C=C(C)C1CC=C(C(=O)[O-])CC1.[Na+] (stereo not drawn) [Sodium perillate, sodium perillate]",MIC,[1]; pH <6.5,D (D<0.1% w/v)
same,MIC,[1]; pH >7.5,C (C=0.1-0.5% w/v)
same,MIC,[2]; pH <6.5,D (D<0.1% w/v)
same,MIC,[2]; pH >7.5,B (B=0.5-1% w/v)
same,MIC,[3]; pH <6.5,C (C=0.1-0.5% w/v)
same,MIC,[3]; pH >7.5,B (B=0.5-1% w/v)
same,MIC,[4]; pH <6.5,B (B=0.5-1% w/v)
same,MIC,[4]; pH >7.5,A (A>1% w/v)
same,MIC,[5],D (D<0.1% w/v)
same,Degradation products detected,[6],no degradation products
same,Solubility in water-based systems,[7],higher solubility
same,Reduced log-steps After T28,[8]; after 28 days,2 log-steps
same,CFU/mL at Sampling Timepoint T0,[8]; day 0,"68,000 CFU/mL"
same,CFU/mL at Sampling Timepoint T7,[8]; day 7,"8,260 CFU/mL"
same,CFU/mL at Sampling Timepoint T14,[8]; day 14,"1,925 CFU/mL"
same,CFU/mL at Sampling Timepoint T21,[8]; day 21,"4,100 CFU/mL"
same,CFU/mL at Sampling Timepoint T28,[8]; day 28,630 CFU/mL
same,Reduced log-steps After T28,[9]; after 28 days,6 log-steps
same,CFU/mL at Sampling Timepoint T0,[9]; day 0,"130,000 CFU/mL"
same,CFU/mL at Sampling Timepoint T7,[9]; day 7,0 CFU/mL
same,CFU/mL at Sampling Timepoint T14,[9]; day 14,0 CFU/mL
same,CFU/mL at Sampling Timepoint T21,[9]; day 21,0 CFU/mL
same,CFU/mL at Sampling Timepoint T28,[9]; day 28,0 CFU/mL
same,Reduced log-steps After T28,[10]; after 28 days,3 log-steps
same,CFU/mL at Sampling Timepoint T0,[10]; day 0,"1,680,000 CFU/mL"
same,CFU/mL at Sampling Timepoint T7,[10]; day 7,"53,500 CFU/mL"
same,CFU/mL at Sampling Timepoint T14,[10]; day 14,190 CFU/mL
same,CFU/mL at Sampling Timepoint T21,[10]; day 21,370 CFU/mL
same,CFU/mL at Sampling Timepoint T28,[10]; day 28,"1,430 CFU/mL"
same,Reduced log-steps After T28,[11]; after 28 days,3 log-steps
same,CFU/mL at Sampling Timepoint T0,[11]; day 0,"580,000 CFU/mL"
same,CFU/mL at Sampling Timepoint T7,[11]; day 7,"45,000 CFU/mL"
same,CFU/mL at Sampling Timepoint T14,[11]; day 14,"11,500 CFU/mL"
same,CFU/mL at Sampling Timepoint T21,[11]; day 21,805 CFU/mL
same,CFU/mL at Sampling Timepoint T28,[11]; day 28,235 CFU/mL
same,Reduced log-steps After T28,[12]; after 28 days,2 log-steps
same,CFU/mL at Sampling Timepoint T0,[12]; day 0,"11,000 CFU/mL"
same,CFU/mL at Sampling Timepoint T7,[12]; day 7,"13,000 CFU/mL"
same,CFU/mL at Sampling Timepoint T14,[12]; day 14,"2,270 CFU/mL"
same,CFU/mL at Sampling Timepoint T21,[12]; day 21,"2,900 CFU/mL"
same,CFU/mL at Sampling Timepoint T28,[12]; day 28,170 CFU/mL
same,CFU/mL at Sampling Timepoint T0,[13]; day 0,10 CFU/mL
same,CFU/mL at Sampling Timepoint T7,[13]; day 7,"23,900 CFU/mL"
same,CFU/mL at Sampling Timepoint T14,[13]; day 14,"52,900 CFU/mL"
same,CFU/mL at Sampling Timepoint T21,[13]; day 21,"530,000 CFU/mL"
same,CFU/mL at Sampling Timepoint T28,[13]; day 28,"470,000 CFU/mL"
same,CFU/mL at Sampling Timepoint T0,[14]; day 0,45 CFU/mL
same,CFU/mL at Sampling Timepoint T7,[14]; day 7,"17,250 CFU/mL"
same,CFU/mL at Sampling Timepoint T14,[14]; day 14,"8,940 CFU/mL"
same,CFU/mL at Sampling Timepoint T21,[14]; day 21,725 CFU/mL
same,CFU/mL at Sampling Timepoint T28,[14]; day 28,685 CFU/mL
same,CFU/mL at Sampling Timepoint T0,[15]; day 0,10 CFU/mL
same,CFU/mL at Sampling Timepoint T7,[15]; day 7,0 CFU/mL
same,CFU/mL at Sampling Timepoint T14,[15]; day 14,0 CFU/mL
same,CFU/mL at Sampling Timepoint T21,[15]; day 21,0 CFU/mL
same,CFU/mL at Sampling Timepoint T28,[15]; day 28,0 CFU/mL
same,CFU/mL at Sampling Timepoint T0,[16]; day 0,55 CFU/mL
same,CFU/mL at Sampling Timepoint T7,[16]; day 7,350 CFU/mL
same,CFU/mL at Sampling Timepoint T14,[16]; day 14,"3,265 CFU/mL"
same,CFU/mL at Sampling Timepoint T21,[16]; day 21,"4,990 CFU/mL"
same,CFU/mL at Sampling Timepoint T0,[17]; day 0,10 CFU/mL
same,CFU/mL at Sampling Timepoint T7,[17]; day 7,10 CFU/mL
same,CFU/mL at Sampling Timepoint T14,[17]; day 14,56 CFU/mL
same,CFU/mL at Sampling Timepoint T21,[17]; day 21,340 CFU/mL
same,CFU/mL at Sampling Timepoint T28,[17]; day 28,910 CFU/mL
"C=C(C)[C@H]1CC=C(C(=O)O)CC1 [R-Perillic Acid, R-Perillic acid]",MIC,[1]; pH <6.5,D (D<0.1% w/v)
same,MIC,[1]; pH >7.5,C (C=0.1-0.5% w/v)
same,MIC,[2]; pH <6.5,D (D<0.1% w/v)
same,MIC,[2]; pH >7.5,B (B=0.5-1% w/v)
same,MIC,[3]; pH <6.5,C (C=0.1-0.5% w/v)
same,MIC,[3]; pH >7.5,B (B=0.5-1% w/v)
same,MIC,[4]; pH <6.5,B (B=0.5-1% w/v)
same,MIC,[4]; pH >7.5,A (A>1% w/v)
same,MIC,[5],D (D<0.1% w/v)
C=C(C)[C@@H]1CC=C(C(=O)O)CC1 [perillic acid],pKa,[18],4.96
